{"source": "patent US20240376148A1", "about": "“MEDICAMENT FOR INHIBITING DIETARY OBESITY AND POLYPEPTIDE USED THEREFOR” (INSTITUTE OF ZOOLOGY, CHINESE ACADEMY OF SCIENCES, priority 2022, published 2024)", "key": {"[1]": {"experiment": "SPF mice feeding experiment (high-fat diet)", "type": "in vivo, C57/B16J mice", "experimental": "C57/B16J mice were used in the SPF mice experiment. At the beginning of the experiment, C57/B16J mice were 4 weeks old, and each weighed 15±1 g. They were raised in a room with suitable temperature and humidity control, and the light/dark cycle was 12 hours, free diet and drinking water, and fed with standard laboratory feed (also known as growth and reproduction feed, item number SPFSLFZ003, product of SPF (Beijing) Experimental Animal Technology Co., Ltd.). After one week of adaptation, they were randomly assigned to a cage, 4-6 mice per cage.\nA total of 12 treatments were set up, each with 2 cages of C57/B16J mice, and each treatment was subjected to different feeding treatments, specifically as follows:\nNC group (i.e. normal diet group): fed with standard laboratory feed (also known as growth and reproduction feed, SPFSLFZ003), free diet and drinking water, each intragastrically administrated with 0.2 ml solvent daily for 8 weeks.\nHFD group (i.e. high-fat diet group): fed with high-fat diet, the high-fat diet used was rodent feed (containing 60% fat, D12492, formula reference Le Roy, T., et al. Dysosmobacter welbionis is a newly isolated human commensal bacterium preventing diet-induced obesity and metabolic disorders in mice. Gut (2021).), free diet and drinking water, each intragastrically administrated with 0.2 ml solvent daily for 8 weeks.\nD1 group (i.e. high-fat diet+D1 intragastric administration group): fed with high-fat diet, free diet and drinking water. Intragastrically administrated with synthetic D1, 0.75 mg-3 mg/Kg body weight, 0.2 ml, once/day for 8 weeks.\nD2 group (i.e. high-fat diet+D2 intragastric administration group): fed with high-fat diet, free diet and drinking water. Intragastrically administrated with synthetic D2, 0.75 mg-3 mg/Kg body weight, 0.2 ml, once/day for 8 weeks.\nD3 group (i.e. high-fat diet+D3 intragastric administration group): fed with high-fat diet, free diet and drinking water. Intragastrically administrated with synthetic D3, 0.75 mg-3 mg/Kg body weight, 0.2 ml, once/day for 8 weeks.\nD4 group (i.e. high-fat diet+D4 intragastric administration group): fed with high-fat diet, free diet and drinking water. Intragastrically administrated with synthetic D4, 0.75 mg-3 mg/Kg body weight, 0.2 ml, once/day for 8 weeks.\nD5 group (i.e. high-fat diet+D5 intragastric administration group): fed with high-fat diet, free diet and drinking water. Intragastrically administrated with synthetic D5, 0.75 mg-3 mg/Kg body weight, 0.2 ml, once/day for 8 weeks.\nD6 group (i.e. high-fat diet+D6 intragastric administration group): fed with high-fat diet, free diet and drinking water. Intragastrically administrated with synthetic D6, 0.75 mg-3 mg/Kg body weight, 0.2 ml, once/day for 8 weeks.\nD7 group (i.e. high-fat diet+D7 intragastric administration group): fed with high-fat diet, free diet and drinking water. Intragastrically administrated with synthetic D7, 0.75 mg-3 mg/Kg body weight, 0.2 ml, once/day for 8 weeks.\nD8 group (i.e. high-fat diet+D8 intragastric administration group): fed with high-fat diet, free diet and drinking water. Intragastrically administrated with synthetic D8, 0.75 mg-3 mg/Kg body weight, 0.2 ml, once/day for 8 weeks.\nD9 group (i.e. high-fat diet+D9 intragastric administration group): fed with high-fat diet, free diet and drinking water. Intragastrically administrated with synthetic D9, 0.75 mg-3 mg/Kg body weight, 0.2 ml, once/day for 8 weeks.\nD10 group (i.e. high-fat diet+D10 intragastric administration group): fed with high-fat diet, free diet and drinking water. Intragastrically administrated with synthetic D10, 0.75 mg-3 mg/Kg body weight, 0.2 ml, once/day for 8 weeks.\nThe feed intake was tracked every week. After the experiment, the mice were weighed and photographs were taken to compare the body size of the mice. After that, the mice were killed by cervical dislocation. […]"}, "[2]": {"system": "A. muciniphila", "experiment": "qPCR of abundance of A. muciniphila in intestine of rhesus monkeys", "type": "in vivo", "conditions": "macaque, p<0.05", "description": "FIGS. 7A-7H are a graph showing the effect of using D3 on rats and rhesus monkeys in Example 2 of the present invention. FIG. 7A is the schematic diagram of sampling time point in rats; FIG. 7B is the graph showing the results of the growth rate of body weight with different feeding treatments of the rat; FIG. 7C is the graph showing the results of the short-term feed intake measurement of the rat; FIG. 7D is the graph showing the results of the qPCR detection of the abundance of A. muciniphila in intestine of rats with different feeding treatment; FIG. 7E is a schematic diagram of the sampling time point in rhesus monkeys; FIG. 7F is the graph showing the results of the growth rate of body weight with different feeding treatments of rhesus monkeys; FIG. 7G is the feed intake monitoring graphs of rhesus monkeys with different feeding treatments; FIG. 7H is the graph showing the results of the qPCR detection of the abundance of A. muciniphila in intestine of rhesus monkeys with different feeding treatment. The data shown in the figure are mean±standard deviation, the number of repetitions is 5-10, and the significant difference of each group is analyzed by Wilcoxon test. * representing a significance analysis result of P<0.05, ** representing a significance analysis result of P<0.01.\nFood intake (unit: g/only/week) and body weight were monitored weekly. […]"}, "[3]": {"system": "UGN", "experiment": "ELISA detection of serum UGN in rats", "type": "in vivo", "conditions": "P<0.05", "experimental": "Serum preparation: mice were placed at room temperature for 2 hours or 4° C. overnight after eye vein blood collection, and centrifuged at 1000× g for 15 minutes at 2-8° C.; the supernatant can be taken for immediate detection; or subpackaged, and the specimens were stored at −20° C. or −80° C., but repeated freezing and thawing should be avoided. Thawed samples should be centrifuged again prior to detecting.\nThe serum sample diluent was diluted 1:200 times and then tested. The specific operation was as follows: 5 μl of the sample was added to 45 μl of the sample diluent (1:10 dilution) and mixed. Then 15 μl of the above diluent was added to the 285 μl sample diluent (1:20 dilution) and mixed. The sample obtained after the completion of the second step was 1:200 times dilution. The sample incubation, primary antibody, horseradish peroxidase labeled avidin working solution, color development, termination and enzyme labeling detection were carried out in turn."}, "[4]": {"system": "UGN", "experiment": "ELISA detection of serum UGN in macaques", "type": "in vivo", "conditions": "macaque, not significant (p=0.06)"}}}
{"sequence": "RTRYCRTGR [D3]", "values": [{"measurement": "body size compared with the HFD group", "setting": "[1]; 8 weeks", "result": "smaller than that of the HFD group"}, {"measurement": "subcutaneous and visceral fat weight (inguinal subcutaneous, epididymis, perirenal) vs HFD group", "setting": "[1]; 8 weeks", "result": "significantly lower than that of the HFD group"}, {"measurement": "weekly feed intake vs control HFD group", "setting": "[1]; after 3-4 weeks", "result": "significant difference in feed intake"}, {"measurement": "body weight decrease compared with the HFD group", "setting": "[1]; intragastric 0.75 mg-3 mg/Kg once/day, after 8 weeks", "result": 12.06, "unit": "%"}, {"measurement": "relative abundance of A. muciniphila in the intestine by qPCR", "setting": "[2]", "result": "significantly increased"}, {"measurement": "level of Guca2b in rat serum", "setting": "[3]", "result": "significantly increased"}, {"measurement": "UGN levels in the serum", "setting": "[4]", "result": "Increased"}]}
